System: 996289-038-R-J1-PDC spheroid viability
Assay: Anticancer human tumor 996289-038-R-J1-PDC patient-derived colon adenocarcinoma cell line growth inhibition [PI3K]
Conditions: spheroids with HUVEC and MSC; for IC50: curve of first compound; for viability, T/C: stronger effect = lower value; active means viability on the fitted dose curve at most 10% of control; inactive means the rest
Summary of the method: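 Multi-cell spheroids combine tumor cells with HUVEC and human MSCs, treated with targeted agents alone or with inavolisib, alpelisib, duvelisib or copanlisib. Concentrations fall in half-log steps from at or near clinical Cmax, or from 10 microM where Cmax is unknown; viability read-out.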

[1] = second compound 0.00316 µM, first compound 0.0316 µM
[2] = second compound 0.00316 µM, first compound 0.1 µM
[3] = second compound 0.00316 µM, first compound 0.316 µM
[4] = second compound 0.00316 µM, first compound 1 µM
[5] = second compound 0.01 µM, first compound 0.0316 µM
[6] = second compound 0.01 µM, first compound 0.1 µM
[7] = second compound 0.01 µM, first compound 0.316 µM
[8] = second compound 0.01 µM, first compound 1 µM
[9] = second compound 0.0316 µM, first compound 0.0316 µM
[10] = second compound 0.0316 µM, first compound 0.1 µM
[11] = second compound 0.0316 µM, first compound 0.316 µM
[12] = second compound 0.0316 µM, first compound 1 µM
[13] = second compound 0.1 µM, first compound 0.0316 µM
[14] = second compound 0.1 µM, first compound 0.1 µM
[15] = second compound 0.1 µM, first compound 0.316 µM
[16] = second compound 0.1 µM, first compound 1 µM
[17] = second compound 0.316 µM, first compound 0.0316 µM
[18] = second compound 0.316 µM, first compound 0.1 µM
[19] = second compound 0.316 µM, first compound 0.316 µM
[20] = second compound 0.316 µM, first compound 1 µM
[21] = second compound 1 µM, first compound 0.0316 µM
[22] = second compound 1 µM, first compound 0.1 µM
[23] = second compound 1 µM, first compound 0.316 µM
[24] = second compound 1 µM, first compound 1 µM
[25] = second compound 0.00316 µM, first compound 3.16 µM
[26] = second compound 0.00316 µM, first compound 10 µM
[27] = second compound 0.01 µM, first compound 3.16 µM
[28] = second compound 0.01 µM, first compound 10 µM
[29] = second compound 0.0316 µM, first compound 3.16 µM
[30] = second compound 0.0316 µM, first compound 10 µM
[31] = second compound 0.1 µM, first compound 3.16 µM
[32] = second compound 0.1 µM, first compound 10 µM
[33] = second compound 0.316 µM, first compound 3.16 µM
[34] = second compound 0.316 µM, first compound 10 µM
[35] = second compound 1 µM, first compound 3.16 µM
[36] = second compound 1 µM, first compound 10 µM
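Further: spheroids exposed to compounds for seven days before viability read.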
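Wherever viability, T/C is given: luminescence used as a proxy for viable cell amount; percent viability relative to DMSO vehicle control as 100%.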

CCN1CCN(Cc2ccc(Nc3ncc(F)c(-c4cc(F)c5nc(C)n(C(C)C)c5c4)n3)nc2)CC1 + CC(Nc1ccc2c(c1)OCCn1cc(N3C(=O)OCC3C(F)F)nc1-2)C(N)=O
inactive: viability, T/C (second compound 0.00316 µM, first compound 0.00316 µM) 97.1% | viability, T/C (second compound 0.00316 µM, first compound 0.01 µM) 93.1% | viability, T/C [1] 93.2% | viability, T/C [2] 84.8% | viability, T/C [3] 76.9% | viability, T/C [4] 78.3% | viability, T/C (second compound 0.01 µM, first compound 0.00316 µM) 98.5% | viability, T/C (second compound 0.01 µM, first compound 0.01 µM) 98.9% | viability, T/C [5] 83.2% | viability, T/C [6] 75.8% | viability, T/C [7] 82.9% | viability, T/C [8] 82.8% | viability, T/C (second compound 0.0316 µM, first compound 0.00316 µM) 94.9% | viability, T/C (second compound 0.0316 µM, first compound 0.01 µM) 83.2% | viability, T/C [9] 78.9% | viability, T/C [10] 69.8% | viability, T/C [11] 79.8% | viability, T/C [12] 67.5% | viability, T/C (second compound 0.1 µM, first compound 0.00316 µM) 78.6% | viability, T/C (second compound 0.1 µM, first compound 0.01 µM) 75.1% | viability, T/C [13] 74.7% | viability, T/C [14] 66.1% | viability, T/C [15] 61.3% | viability, T/C [16] 65.8% | viability, T/C (second compound 0.316 µM, first compound 0.00316 µM) 71.3% | viability, T/C (second compound 0.316 µM, first compound 0.01 µM) 73.9% | viability, T/C [17] 64.3% | viability, T/C [18] 54.7% | viability, T/C [19] 57.3% | viability, T/C [20] 48.4% | viability, T/C (second compound 1 µM, first compound 0.00316 µM) 53.7% | viability, T/C (second compound 1 µM, first compound 0.01 µM) 53.2% | viability, T/C [21] 52.6% | viability, T/C [22] 47.4% | viability, T/C [23] 46.4% | viability, T/C [24] 45%
0.772 µM: IC50 (second compound 0.316 µM)
> 1 µM: IC50 (second compound 0.00316 µM) | IC50 (second compound 0.01 µM) | IC50 (second compound 0.0316 µM) | IC50 (second compound 0.1 µM)
0.0538 µM: IC50 (second compound 1 µM)

Cn1ncc(Cl)c1-c1cc(C(=O)NC(CN)Cc2cccc(F)c2)sc1Cl (stereo unspecified) + CC(Nc1ccc2c(c1)OCCn1cc(N3C(=O)OCC3C(F)F)nc1-2)C(N)=O
1.84 µM: IC50 (second compound 0.1 µM)
inactive: viability, T/C [1] 83.3% | viability, T/C [2] 82.9% | viability, T/C [3] 84.3% | viability, T/C [4] 80% | viability, T/C [25] 60% | viability, T/C [26] 54.5% | viability, T/C [5] 111% | viability, T/C [6] 97% | viability, T/C [7] 83.8% | viability, T/C [8] 73.7% | viability, T/C [27] 58.6% | viability, T/C [28] 46.5% | viability, T/C [9] 87.2% | viability, T/C [10] 84.2% | viability, T/C [11] 76.6% | viability, T/C [12] 64.8% | viability, T/C [29] 61.3% | viability, T/C [30] 35.5% | viability, T/C [13] 77.8% | viability, T/C [14] 80.2% | viability, T/C [15] 63.9% | viability, T/C [16] 56% | viability, T/C [31] 46% | viability, T/C [32] 33.6% | viability, T/C [17] 66.9% | viability, T/C [18] 59.6% | viability, T/C [19] 75.7% | viability, T/C [20] 55.3% | viability, T/C [33] 43.2% | viability, T/C [34] 28.9% | viability, T/C [21] 53.5% | viability, T/C [22] 52.6% | viability, T/C [23] 52.6% | viability, T/C [24] 43.9% | viability, T/C [35] 38.4% | viability, T/C [36] 25.8%
1.83 µM: IC50 (second compound 0.316 µM)
0.352 µM: IC50 (second compound 1 µM)
4.62 µM: IC50 (second compound 0.0316 µM)
7.33 µM: IC50 (second compound 0.01 µM)
> 10 µM: IC50 (second compound 0.00316 µM)

Cn1nccc1Nc1nccc(-c2ccn(C(CO)c3ccc(Cl)c(F)c3)c(=O)c2)n1 (stereo unspecified) + CC(Nc1ccc2c(c1)OCCn1cc(N3C(=O)OCC3C(F)F)nc1-2)C(N)=O
inactive: viability, T/C [1] 104% | viability, T/C [2] 98% | viability, T/C [3] 117% | viability, T/C [4] 106% | viability, T/C [25] 94.4% | viability, T/C [26] 58.4% | viability, T/C [5] 104% | viability, T/C [6] 95.3% | viability, T/C [7] 105% | viability, T/C [8] 103% | viability, T/C [27] 70.8% | viability, T/C [28] 53.4% | viability, T/C [9] 98.9% | viability, T/C [10] 110% | viability, T/C [11] 86.8% | viability, T/C [12] 93.6% | viability, T/C [29] 67.8% | viability, T/C [30] 50% | viability, T/C [13] 87.9% | viability, T/C [14] 89.6% | viability, T/C [15] 97.2% | viability, T/C [16] 81% | viability, T/C [31] 78.7% | viability, T/C [32] 46.8% | viability, T/C [17] 79.5% | viability, T/C [18] 74.5% | viability, T/C [19] 61.4% | viability, T/C [20] 67.6% | viability, T/C [33] 58.2% | viability, T/C [34] 39.5% | viability, T/C [21] 56.2% | viability, T/C [22] 64.4% | viability, T/C [23] 53.7% | viability, T/C [24] 73.3% | viability, T/C [35] 45% | viability, T/C [36] 30.2%
4.82 µM: IC50 (second compound 0.316 µM)
2.25 µM: IC50 (second compound 1 µM)
> 10 µM: IC50 (second compound 0.00316 µM) | IC50 (second compound 0.01 µM)
9.77 µM: IC50 (second compound 0.0316 µM)
9.01 µM: IC50 (second compound 0.1 µM)
